Experimental data as given in article PMC8296573, “Synthesis and Biological Evaluation of Fingolimod Derivatives as Antibacterial Agents” (ACS Omega, 2021).
Converted amounts (≈) assume the structure as drawn. Like-named read-outs stand apart in the source and are kept apart here.

Assays:
Assay type in all cases: cell-based, Staphylococcus aureus
S. aureus ATCC 25923 = assay: Antibacterial activity, pre-exposure (planktonic cells and biofilm formation); details: for Initial screening result (active = at least 60% inhibition of planktonic cells and biofilm formation): 50 μM, S. aureus; for MIC: Staphylococcus aureus, ATCC25923, read-out: MIC (S. aureus)
Protocol: (§1) The antimicrobial activity was assessed in a similar way for the initial screening and the dose–response evaluation against different bacterial strains. With the exception of the post-exposure experiment, the compounds were added to the wells along with the bacteria to test the ability of compounds to prevent bacterial growth and biofilm formation (pre-exposure). The compounds were diluted in DMSO and plated directly in 96-well plates before adding the bacterial culture, and plates were incubated for 18 h under aerobic conditions at 37 °C with shaking (220 rpm). The antibacterial activity of the compounds was assessed on planktonic cells and biofilms separately using two different measurements for each: optical density (turbidity) and resazurin reduction (viability) on planktonic cells and resazurin followed by a crystal violet staining assay (total biomass) on biofilms, as described in the following sections.
(§2) The resazurin staining was performed according to the protocol previously optimized with a few modifications.[46] Briefly, the planktonic solution was first transferred into a new 96-well plate and the OD of the planktonic solution was measured using a Varioskan LUX Multimode microplate reader (Thermo Scientific, Vantaa, Finland). Then, 10 μL of a 400 μM resazurin (R7017, Sigma-Aldrich, St. Louis, MO) diluted in phosphate-buffered saline (PBS) (Thermo Fisher Scientific, MA) was added to the wells (for a final resazurin concentration of 20 μM). The plate was incubated in the dark with shaking (220 rpm) for about 3–10 min at room temperature with S. aureus and A. baumannii (until the bacteria controls turned pink) or for 20 min at 37 °C with P. aeruginosa. Fluorescence was measured at λex = 560 nm and λem = 590 nm using the top optics of the Varioskan LUX Multimode microplate reader. The planktonic plate was then discarded. The original challenge plate containing the biofilms was washed once with PBS, and 200 μL of a 20 μM resazurin solution was added to the wells. The plate was incubated in the dark at 37 °C with shaking (220 rpm) for 30 min with S. aureus, 60 min with A. baumannii, and 90 min with P. aeruginosa. Fluorescence was measured as described for the planktonic solution. The biofilms were next treated with crystal violet staining.
(§3) After removing the resazurin solution from the plate, biofilms were fixed with ethanol 100% for 15 min at room temperature. Ethanol was then removed, and the biofilms were left to air-dry completely at RT. Crystal violet, diluted to 1:100 in deionized water from the 2.3% commercial solution (HT90132, Sigma-Aldrich, St. Louis, MO), was added to the wells and, after a 5 min incubation with the dye, the biofilms were washed twice with deionized water and left to air-dry for about 10 min. The dye was solubilized in ethanol 100% for 1 h, and absorbance was measured at 595 nm using a Multiskan Sky microplate spectrophotometer (Thermo Scientific, Vantaa, Finland).

S. aureus ATCC 12598 = assay: Antibacterial activity, pre-exposure; details: S. aureus ATCC 12598, pre-exposure, 50 µM, ± SD; for inhibition at 50 µM: Staphylococcus aureus, ATCC12598
Protocol: as §1, §2, §3

S. aureus P2 = assay: Antibacterial activity, pre-exposure; details: S. aureus P2, pre-exposure, 50 µM, ± SD; for inhibition at 50 µM: Staphylococcus aureus
Protocol: as §1, §2, §3

[1] = read-out: Average inhibition %, biofilms biomass
[2] = read-out: Average inhibition %, planktonic cells turbidity

MIC (S. aureus ATCC 25923) | Compound | further results
100 µM (≈ 27.9 µg/mL) | CCCCCCc1ccc(CCC(N)(CO)CO)cc1 [Compound 10, 2-Amino-2-(4-hexylphenethyl)propane-1,3-diol] | Initial screening result (active = at least 60% inhibition of planktonic cells and biofilm formation) (S. aureus ATCC 25923): only limited activity against S. aureus biofilms
> 100 µM | NC(CO)(CO)CCc1ccc(Cc2ccccc2)cc1 [Compound 12, 2-Amino-2-(4-benzylphenethyl)propane-1,3-diol] | –
> 100 µM | COc1ccc(-c2ccc(CCC(N)(CO)CO)cc2)cc1OC [Compound 13, 2-Amino-2-[2-(3′,4′-dimethoxy-[1,1′-biphenyl]-4-yl)ethyl]propane-1,3-diol] | –
> 100 µM | NC(CO)(CO)CCc1ccc(-c2ccc(OCc3ccccc3)cc2)cc1 [Compound 14, 2-Amino-2-[2-[4′-(benzyloxy)-[1,1′-biphenyl]-4-yl]ethyl]propane-1,3-diol] | –
> 100 µM | NC(CO)(CO)CCc1ccc(/C=C/Cc2ccccc2)cc1 [Compound 16, (E)-2-Amino-2-[4-(3-phenylprop-1-en-1-yl)phenethyl]propane-1,3-diol] | –
> 100 µM | NC(CO)(CO)CCc1ccc(OCc2ccccc2)cc1 [Compound 25, 2-Amino-2-[4-(benzyloxy)phenethyl]propane-1,3-diol] | –
> 100 µM | NC(CO)(CO)CCc1ccc(OCc2ccc(C(F)(F)F)cc2)cc1 [Compound 26, 2-Amino-2-[4-[[4-(trifluoromethyl)benzyl]oxy]phenethyl]propane-1,3-diol] | –
> 100 µM | NC(CO)(CO)CCc1ccc(OCc2ccc(C(F)(F)F)nc2)cc1 [Compound 27] | –
> 100 µM | NC(CO)(CO)CCc1ccc(OCc2ccc3ccc(Cl)cc3n2)cc1 [Compound 28, 2-Amino-2-[4-[(7-chloroquinolin-2-yl)methoxy]phenethyl]propane-1,3-diol] | –
> 100 µM | CCCCc1ccc(COc2ccc(CCC(N)(CO)CO)cc2)cc1 [Compound 29, 2-Amino-2-[4-[(4-butylbenzyl)oxy]phenethyl]propane-1,3-diol] | –
> 100 µM | NC(CO)(CO)CCc1ccc2ccccc2n1 [Compound 33, 2-Amino-2-[2-(quinolin-2-yl)ethyl]propane-1,3-diol] | –
100 µM (≈ 30.8 µg/mL) | CCCCCCCCc1ccc(CCC(N)(CO)CO)nc1 [Compound 61, 2-Amino-2-[2-(5-octylpyridin-2-yl)ethyl]propane-1,3-diol] | Initial screening result (active = at least 60% inhibition of planktonic cells and biofilm formation) (S. aureus ATCC 25923): did not show an inhibitory activity comparable to fingolimod
– | CC1(C)S[C@@H]2[C@H](NC(=O)Cc3ccccc3)C(=O)N2[C@H]1C(=O)O [Penicillin-G, reference compound] | Average inhibition %, biofilms viability (S. aureus ATCC 12598): 97.5 ± 1.5%; Average inhibition %, planktonic cells viability (S. aureus ATCC 12598): 99.7 ± 0%; inhibition at 50 µM (S. aureus ATCC 12598; [1]): 95.8 ± 1%; inhibition at 50 µM (S. aureus ATCC 12598; [2]): 99.7%; Average inhibition %, biofilms viability (S. aureus P2): 9.5 ± 9.8%; Average inhibition %, planktonic cells viability (S. aureus P2): 14.9 ± 10.3%; inhibition at 50 µM (S. aureus P2; [1]): 17.4 ± 13.2%; inhibition at 50 µM (S. aureus P2; [2]): 12.2 ± 14.5%
